# Experimental data as given in US20130317054A1, “NEURONAL NICOTINIC AGONIST AND METHODS OF USE” (ABBVIE INC., priority 2012, published 2013).
# How the values were obtained:
# [1] = tested on: patients with schizophrenia; details: cigarettes, sprays, patch; cited from earlier work
# [2] = in vivo; cited from earlier work
# [3] = tested on: clinically stable subjects with schizophrenia; assay: Phase 2a Clinical Study A: MATRICS Consensus Cognitive Battery (MCCB); assay type: in vivo, human; details: for change from baseline to Week 12 in MCCB composite score (LS mean): ITT analysis, 12 weeks; for MCCB composite LS mean change from baseline to Week 12: subset of nonsmokers
# Excerpt: (§1) A Phase 2a proof-of-concept (POC) study in clinically stable subjects with schizophrenia who were clinically stable and received stable doses of atypical antipsychotic therapy. The study was a Phase 2, multi-center, randomized, double-blind, placebo-controlled, parallel group study designed to evaluate the safety and efficacy of doses of (4s)-4-(5-phenyl-1,3,4-thiadiazol-2-yloxy)-1-azatricyclo[3.3.1.1^3,7]decane (Compound A) in clinically stable male and female subjects (ages 20 to 55, inclusive) with a Diagnostic and Statistical Manual of Mental Disorders—Fourth Edition, Text Revision (DSM-IV-TR) diagnosis of schizophrenia. Psychiatric diagnoses were confirmed using the Mini-International Neuropsychiatric Interview (MINI) version 6.0.0. The criteria for clinical stability was determined by a combination of retrospective data (over the 4 months prior to the start of Screening, which will be supported by clinical records, patient, identified responsible contact person, and physician interviews), and prospective data assessed during the Prospective Stabilization Period of 28 to 42 days duration.
# (§2) The study was a Phase 2, multi-center, randomized, double-blind, placebo-controlled, parallel group study designed to evaluate the safety and efficacy of doses of (4s)-4-(5-phenyl-1,3,4-thiadiazol-2-yloxy)-1-azatricyclo[3.3.1.1^3,7]decane, which is also recognized as Compound A, in treating cognitive deficits in subjects with schizophrenia who were clinically stable and receiving one or two atypical antipsychotic medications. Study drug was administered orally.
# (§3) The study consisted of a screening period of at least 28 and up to 42 days, a 84-day outpatient treatment period, a 14-day post-treatment period, and a post-treatment follow-up period. The screening period consisted of three visits: Screening Visit 1, Screening Visit 2, and Day −1. Upon completion of Day −1 procedures, eligible subjects were randomized through an Interactive Voice Response/Interactive Web-Based (IVR/IWB) system. Subjects were randomized in an equal ratio to one of three treatment groups (placebo, 10 mg Compound A, or 25 mg Compound A).
# (§4) Subjects were randomized in a 1:1:1 ratio with placebo, 10 mg QD Compound A, of 25 mg Compound A. Each subject was instructed to take study drug once-daily in the morning for 12 weeks. Each daily dose was preferably taken with food. The subject and investigator were blinded to the treatment assignment throughout the study. The treatment assignments for the study subjects are shown below in Table 1.
# (§5) The primary endpoint was the MCCB composite score, and the primary endpoint analysis was the change on the MCCB composite score from baseline to endpoint versus placebo. Other secondary measures included the MCCB domains, the NSA-16, the CANTAB cognition battery (measured at different time points from the MCCB), and the UPSA-2. The Positive and Negative Syndrome Scale (PANSS) was included to document stability in schizophrenia symptomatology.
# The MCCB was developed by a consortium of academic, industry, the Food and Drug Administration (FDA) and National Institute of Mental Health (NIMH) members called Measurement and Treatment Research to Improve Cognition in Schizophrenia (MATRICS). The battery was established in a multiple phase process that involved experts identifying cognitive tests in the literature that had shown deficits in schizophrenia, use of factor analysis to identify key domains of cognitive deficits in schizophrenia, and then empirically identifying the best tests for each domain based on reliability, validity and feasibility for use in clinical trials. The FDA has endorsed the MCCB as an appropriate outcome measure for Phase 3 CDS trials. […]
# [4] = tested on: clinically stable subjects with schizophrenia; assay: Phase 2a Clinical Study A: UCSD Performance-Based Skills Assessment-2 (UPSA-2); assay type: in vivo, human; details: for UPSA-2 change from baseline score: placebo 2.6, not statistically significant
# Excerpt: as §1, §2, §3, §4, §5
# The UCSD Performance-Based Skills Assessment-2 (UPSA-2) is a role-play test designed for subjects with schizophrenia to evaluate cognitive functional capacity in six selected domains of basic living skills. These areas include Organization/Planning, Financial Skills, Communication, Transportation, Household Management, and Medication Management. […] Scores were obtained for each subtest, and the total score was the sum of these subtests. […] The UPSA-2 required an average of 30 minutes to administer. The UPSA-2 was administered in on Days 14, 28, 56, 84 and 98.
# [5] = tested on: clinically stable subjects with schizophrenia; assay: Phase 2a Clinical Study A: NSA-16 (negative symptoms); assay type: in vivo, human
# Excerpt: as §1, with “Psychiatric diagnoses were confirmed using the Mini-International Neuropsychiatric Interview (MINI) version 6.0.0.” left out, “duration. […]” for “duration.”
# as §5, with “The Positive and Negative Syndrome Scale (PANSS) was included to document stability in schizophrenia symptomatology.” left out
# [6] = tested on: clinically stable subjects with schizophrenia; assay: Phase 2a Clinical Study A: Positive and Negative Syndrome Scale (PANSS); assay type: in vivo, human; details: ITT or nonsmoker groups, throughout the study
# Excerpt: as §1, with “Psychiatric diagnoses were confirmed using the Mini-International Neuropsychiatric Interview (MINI) version 6.0.0.” left out, “duration. […]” for “duration.”
# as §5, with “The Positive and Negative Syndrome Scale (PANSS) was included to document stability in schizophrenia symptomatology.” left out
# [7] = tested on: clinically stable subjects with schizophrenia; assay: Phase 2a Clinical Study A: CANTAB cognition battery; assay type: in vivo, human; details: taken at different time points from the MCCB
# Excerpt: as §1, with “Psychiatric diagnoses were confirmed using the Mini-International Neuropsychiatric Interview (MINI) version 6.0.0.” left out, “duration. […]” for “duration.”
# as §5, with “The Positive and Negative Syndrome Scale (PANSS) was included to document stability in schizophrenia symptomatology.” left out
# [8] = tested on: clinically stable subjects with schizophrenia; assay: Phase 2a Clinical Study A: disposition of subjects and tolerability; assay type: in vivo, human; details: for Primary reason for discontinuation: Adverse event: percentages based on treated subjects
# Excerpt: as §1, §2, §3, §4
# Subjects completed 2 visits during the screening period. […]
# [9] = tested on: patients with schizophrenia; details: cited from earlier work
# [10] = subset of smoking subjects, both dose groups (10 mg, 25 mg)
# [11] = nonsmokers, dose group not stated
compound,measurement,setting,value
"CN1CCCC1c1cccnc1 (stereo not shown) [Nicotine, nicotine]",neuropsychological performance,[1],improved
"O=C(N[C@H]1CN2CCC1CC2)c1cc2cccc(Cl)c2s1 [EVP-6124, N-[(3R)-1-azabicyclo[2.2.2]oct-3-yl]-7-chloro-1-benzothiophene-2-carboxamide]",effect on the CogState test battery,[2],improvements
"c1ccc(-c2nnc(O[C@@H]3C4CC5C[C@H]3C[N@](C5)C4)s2)cc1 [Compound A, (4s)-4-(5-phenyl-1,3,4-thiadiazol-2-yloxy)-1-azatricyclo[3.3.1.1^3,7]decane]",change from baseline to Week 12 in MCCB composite score (LS mean),"[3]; 10 mg QD oral, P=0.088 versus placebo (LS mean +0.50)",+1.79
same,change from baseline to Week 12 in MCCB composite score (LS mean),"[3]; 25 mg QD oral, P=0.067 versus placebo (LS mean +0.50)",+2.02
same,effect on cognition in subjects with schizophrenia (summary),"[3]; driven by verbal learning, working memory and attention, consequence of the effect in nonsmoking subjects",procognitive effect
same,"MCCB social cognition domain, mean values across treatment groups","[3]; nonsmokers, 10 mg, 25 mg and placebo",similar
same,"MCCB all other domains with the exception of reasoning and problem solving, effect versus placebo","[3]; nonsmokers, active treatment groups, monotonic dose relationship",magnitude of effect was greater
same,MCCB composite LS mean change from baseline to Week 12,"[3]; 10 mg, P=0.021 compared to placebo (−0.7)",+2.1
same,MCCB composite LS mean change from baseline to Week 12,"[3]; 25 mg, P=0.001 compared to placebo (−0.7)",+4.5
same,change from baseline scores on the MCCB composite and domain scores,[3]; [10],markedly similar to placebo
same,UPSA-2 composite score,"[4]; ITT, either dose group (10 mg, 25 mg)",No significance
same,UPSA-2 change from baseline score,"[4]; nonsmokers, 10 mg",1.4
same,UPSA-2 change from baseline score,"[4]; nonsmokers, 25 mg",3.9
same,UPSA-2 effect size (Cohen's d) based on the raw data,[4]; [11],0.13
same,UPSA-2 model-based effect size,[4]; [11],0.23
same,change from baseline scores on the UPSA-2,[4]; [10],markedly similar to placebo
same,effect on negative symptoms of schizophrenia (summary),"[5]; human, in vivo",No effect
same,NSA-16 analyses,[5]; nonsmoking subjects and subjects with predominant negative symptoms,did not reveal statistical significance
same,changes in the PANSS scores,[6],no significant changes
same,Results of the CANTAB battery,[7],markedly similar to those of the MCCB
same,Primary reason for discontinuation: Adverse event,[8]; 10 mg QD,4 (5.8) n (%)
same,Primary reason for discontinuation: Adverse event,[8]; 25 mg QD,3 (4.5) n (%)
same,Primary reason for discontinuation: Adverse event,[8]; Compound A overall,7 (5.1) n (%)
same,tolerability in subjects with schizophrenia,"[8]; doses up to 25 mg QD, including 10 mg QD and 25 mg QD",well tolerated
COc1ccc(/C=C2\CCCN=C2c2cccnc2)c(OC)c1 [GTS-21],effect on the Repeatable Battery for the Assessment of Neuropsychological Status total scale,[9],positive effects
